Measurements as given in patent US12065494B2, “Combination therapy comprising an FGFR inhibitor and a Nectin-4 targeting agent” (Incyte Corporation, priority 2021, dated 2024).

Key:
[1] = test system: UM-UC-14 cancer xenograft model; assay: UM-UC-14 xenograft model, tumor growth; format: in vivo, mice; details: single agent
[2] = test system: RT112/84 bladder cancer xenograft model; assay: RT112/84 xenograft model, tumor growth (6 groups); format: in vivo, mice
Procedure: The in vivo effect of combining pemigatinib plus EV (Padcev, Refdrug Inc.) was assessed in the RT112/84 bladder cancer (85061106, Sigma/ECACC, UK) xenograft model (FIG. 4) in 6 to 8 weeks old NSG mice (Jackson laboratories). Pemigatinib was suspended in 5% N,N-dimethyl acetamide (DMAC)+50 mM Citrate buffer in 0.5% methyl cellulose for oral administration and EV was suspended in saline for intravenous administration. Briefly, the left flank of the mice were shaved the day prior to subcutaneous inoculation with 2×10^6 RT112/84 suspended in matrigel (Corning Life Sciences, Tewksbury, Mass.). On day 7, tumor dimensions were measured by Vernier calipers, and volume estimated by the formula Volume=[L (long dimension)×W2 (short dimension)]/2. Mice were randomized into 6 groups of 10 mice of approximate mean volume (˜200 mm^3). Tumors were measured 3 times per week for the duration of the study. Starting day 7, mice were dosed with (i) vehicle; (ii) 0.3 mg/kg of pemigatinib; (iii) 1 mg/kg of pemigatinib; (iv) 3 mg/kg of EV; (v) 0.3 mg/kg of pemigatinib and 3 mg/kg of EV; or (vi) 1 mg/kg of pemigatinib and 3 mg/kg of EV. Pemigatinib was administered orally once daily (QD) for 10 days, while EV was dosed every 4 days (for a total of 2 doses).

Nectin-4 [3] = assay: RT112/84 in vivo Nectin-4 receptor density (xenograft, flow cytometry); details: RT112/84 tumor bearing NSG mice; pemigatinib 0.3 or 1 mg/kg oral, EV 3 mg/kg intravenous; tumors collected 4 h post dose
Procedure: The effect of combining pemigatinib plus EV (Padcev, Refdrug Inc.) on Nectin-4 receptor density was also assessed in vivo in the RT112/84 bladder cancer xenograft model (FIG. 2B) in 6 to 8 weeks old NSG mice (Jackson laboratories). Pemigatinib was suspended in 5% N,N-dimethyl acetamide (DMAC)+50 mM Citrate buffer in 0.5% methyl cellulose for oral administration and EV was suspended in saline for intravenous administration. Briefly, the left flanks of the mice were shaved the day prior to subcutaneous inoculation with 2×10^6 RT112/84 suspended in matrigel (Corning Life Sciences, Tewksbury, Mass.). On day 16, mice were dosed with (i) vehicle; (ii) 0.3 mg/kg of pemigatinib; (iii) 1 mg/kg of pemigatinib; (iv) 3 mg/kg of EV; (v) 0.3 mg/kg of pemigatinib and 3 mg/kg of EV; or (vi) 1 mg/kg of pemigatinib and 3 mg/kg of EV, and tumors were collected 4 h post dose.

Nectin-4 [4] = assay: RT112/84 in vitro Nectin-4 receptor density (flow cytometry); format: cell-based; details: RT112/84 cells; 100 nM pemigatinib, 100 nM EV or both; different time points after treatment
Procedure: The effect of combining pemigatinib plus enfortumab vedotin (“EV”) (Padcev, Refdrug Inc.) on Nectin-4 receptor density was assessed in vitro in the RT112/84 bladder cancer cell line. Briefly, RT112/84 cells were treated with either 100 nM pemigatinib, 100 nM EV, or the combination of both. The receptor density of Nectin-4 was then assessed by flow cytometry upon a LSRFortessa X-20 instrument (BD Biosciences) with Quantibrite phycoerythrin (PE) beads (BD Biosciences Cat No 340495) using an anti-Nectin-4 PE conjugated antibody (RnD Systems Cat No FAB2659) at different time points after treatment (FIG. 2A).

ERK = assay: RT112/84 in vivo pERK inhibition (tumor lysates, MSD); details: RT112/84 tumor bearing NSG mice; pemigatinib 1 mg/kg oral, EV 3 mg/kg intravenous; tumors collected 4 h post dose
Procedure: Tumors were then processed and levels of phospho ERK were assessed on tumor lysates by MSD (Mesoscale).

[5] = pemigatinib 0.3 mg/kg oral QD for 10 days
[6] = pemigatinib 1 mg/kg oral QD for 10 days

CCN1C(=O)N(c2c(F)c(OC)cc(OC)c2F)Cc2cnc3[nH]c(CN4CCOCC4)cc3c21 [pemigatinib, 3-(2,6-difluoro-3,5-dimethoxyphenyl)-1-ethyl-8-(morpholin-4-ylmethyl)-1,3,4,7-tetrahydro-2H-pyrrolo[3′,2′:5,6]pyrido[4,3-d]pyrimidin-2-one]
therapeutic effect in delaying tumor growth vs vehicle [1, 5]: only pemigatinib 1 mg/kg treatment had a therapeutic effect | therapeutic effect in delaying tumor growth vs vehicle [1, 6]: had a therapeutic effect in delaying tumor growth as single agent | therapeutic effect in delaying tumor growth vs vehicle [2, 5]: all the treatments, with the exemption of pemigatinib 0.3 mg/kg, had a therapeutic effect | therapeutic effect in delaying tumor growth vs vehicle [2, 6]: had a therapeutic effect in delaying tumor growth | Nectin-4 receptor density in tumor cells (Nectin-4 [3]): did not induce changes in Nectin-4 receptor density | Nectin-4 receptor density (Nectin-4 [4]): did not induce changes in Nectin-4 receptor density | phosphorylation of ERK in tumor (ERK): decrease phosphorylation of ERK
